Source: patent publication US11472791B2 (Incyte Corporation, priority 2019, dated 2022)

What follows are compounds tested against CDK2/Cyclin E1 (Homo sapiens (Human), UniProt P24941) (assay: CDK2/Cyclin E1 HTRF enzyme activity assay). Conditions: 1 mM ATP.
Format: biochemical
Description: Assays are conducted in white 384-well polystyrene plates in a final reaction volume of 8 μL. […] HTRF signals are read after 1 hour at room temperature on a PHERAstar FS plate reader (BMG Labtech). Data is analyzed with IDBS XLFit and GraphPad Prism 5.0 software using a three or four parameter dose response curve to determine IC50 for each compound.

| SMILES | IC50 [µM] |
| --- | --- |
| CN1CC(S(=O)(=O)N2CCC(Nc3ncc(C(F)(F)F)c(-c4cnn(CC(C)(C)O)c4)n3)CC2)C1 [Example 85, 2-Methyl-1-(4-(2-((1-((1-methylazetidin-3-yl)sulfonyl)piperidin-4-yl)amino)-5-(trifluoromethyl)pyrimidin-4-yl)-1H-pyrazol-1-yl)propan-2-ol] | < 0.05 |
| CO[C@@H]1CCN(CCCS(=O)(=O)N2CC[C@H](Nc3ncc(C(F)(F)F)c(-c4cnn(CC(C)(C)O)c4)n3)[C@H](F)C2)C1 [Example 206, 1-(4-(2-(((3R,4S)-3-Fluoro-1-((3-((R)-3-methoxypyrrolidin-1-yl)propyl)sulfonyl)piperidin-4-yl)amino)-5-(trifluoromethyl)pyrimidin-4-yl)-1H-pyrazol-1-yl)-2-methylpropan-2-ol] | < 0.05 |
| CCn1cc(CNCc2ccc(-n3cc(-c4nc(NC5CCN(S(C)(=O)=O)CC5)ncc4C#N)cn3)c(Cl)c2)cn1 [Example 194, 4-(1-(2-Chloro-4-((((1-ethyl-1H-pyrazol-4-yl)methyl)amino)methyl)phenyl)-1H-pyrazol-4-yl)-2-((1-(methylsulfonyl)piperidin-4-yl)amino)pyrimidine-5-carbonitrile] | < 0.05 |
| CS(=O)(=O)N1CCC(Nc2ncc(C(F)(F)F)c(-c3cnn(-c4ccccc4Cl)c3)n2)CC1 [Example 14, 4-(1-(2-Chlorophenyl)-1H-pyrazol-4-yl)-N-(1-(methylsulfonyl)piperidin-4-yl)-5-(trifluoromethyl)pyrimidin-2-amine] | < 0.05 |
| COC1CCN(CCCS(=O)(=O)N2CCC(Nc3ncc(C(F)(F)F)c(-c4cnn(CC(C)(C)O)c4)n3)CC2)CC1 [Example 77, 1-(4-(2-((1-((3-(4-Methoxypiperidin-1-yl)propyl)sulfonyl)piperidin-4-yl)amino)-5-(trifluoromethyl)pyrimidin-4-yl)-1H-pyrazol-1-yl)-2-methylpropan-2-ol] | < 0.05 |
| Cc1nc(CN2CCN(C)CC2)ccc1-n1cc(-c2nc(NC3CCN(S(=O)(=O)c4cn(C)cn4)CC3)ncc2C(F)(F)F)cn1 [Example 252, N-(1-((1-Methyl-1H-imidazol-4-yl)sulfonyl)piperidin-4-yl)-4-(1-(2-methyl-6-((4-methylpiperazin-1-yl)methyl)pyridin-3-yl)-1H-pyrazol-4-yl)-5-(trifluoromethyl)pyrimidin-2-amine] | < 0.05 |
| Cc1cc(CN2CCOCC2)ccc1-n1cc(-c2nc(NC3CCN(S(=O)(=O)c4cn(C)cn4)CC3)ncc2C(F)(F)F)cn1 [Example 107, N-(1-((1-Methyl-1H-imidazol-4-yl)sulfonyl)piperidin-4-yl)-4-(1-(2-methyl-4-(morpholinomethyl)phenyl)-1H-pyrazol-4-yl)-5-(trifluoromethyl)pyrimidin-2-amine] | < 0.05 |
| Cc1nc(CNC(C)(C)C)ccc1-n1cc(-c2nc(NC3CCN(S(=O)(=O)C4CC4)CC3)ncc2C#N)cn1 [Example 277, 4-(1-(6-((tert-Butylamino)methyl)-2-methylpyridin-3-yl)-1H-pyrazol-4-yl)-2-((1-(cyclopropylsulfonyl)piperidin-4-yl)amino)pyrimidine-5-carbonitrile] | < 0.05 |
| CC(C)(O)Cn1cc(-c2nc(N[C@H]3CCN(S(=O)(=O)CCCN4CCOCC4)C[C@H]3F)ncc2C(F)(F)F)cn1 [Example 201, 1-(4-(2-(((3R,4S)-3-Fluoro-1-((3-morpholinopropyl)sulfonyl)piperidin-4-yl)amino)-5-(trifluoromethyl)pyrimidin-4-yl)-1H-pyrazol-1-yl)-2-methylpropan-2-ol] | < 0.05 |
| Cc1nc(CNC(C)C)ccc1-n1cc(-c2nc(NC3CCN(S(=O)(=O)c4cn(C)cn4)CC3)ncc2Cl)cn1 [Example 274, 5-Chloro-4-(1-(6-((isopropylamino)methyl)-2-methylpyridin-3-yl)-1H-pyrazol-4-yl)-N-(1-((1-methyl-1H-imidazol-4-yl)sulfonyl)piperidin-4-yl)pyrimidin-2-amine] | < 0.05 |
